Among the test systems are HOP-62 NSCLC; A549 NSCLC; TK-10 renal; KM12 colon; NCI-H460 lung; NCI-H522 lung; SK-MEL-2 melanoma; SK-OV-3 ovarian; CAKI-1 renal; SNB-19 CNS.
Holding throughout (assay): NCI tumour cell line growth inhibition, 48 h

This passage reports TGI and GI50 results from PubChem BioAssay (NCI).

Several values for one entry are separate records, joined by “and”; a condition that tells them apart may be missing. Identical values can stand only once.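 Interpolation was linear, between the two tested concentrations surrounding the appropriate level; five concentrations were tested over 48 hours in 96-well plates. The concentration for 50% growth inhibition is given as GI50. The concentration for full growth arrest is given as TGI.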 Where a SMILES comes first, the peptide text is derived from it. [ ]: non-standard residue; d: D form. The star is where a group is joined. ξ: configuration not given here. X6 = FC(F)(F)c1cc(NC(=S)*)cc(C(F)(F)F)c1; ξF = NC(Cc1ccccc1)C(=O)O Some results are limits rather than exact numbers.

On to `COC(=O)[C@@H]1[C@H](O)[C@H](C)[C@H](O)[C@@](C)(O)/C=C\C=C(C)C(=O)Nc2c(C)c(OC(C)=O)c3c(c2O)C(=O)C(C)=C2OCOC(=C23)C(C)=C[C@@](C)(O)[C@H](O)[C@@H](C)[C@H]1OC(C)=O`, for which the TGI is > 100 µM and 66.9 µM in the test on HOP-62 NSCLC; over 100 µM in the test with A549 NSCLC; over 100 µM in the test with TK-10 renal; over 100 µM in the test with KM12 colon; over 100 µM in the test with NCI-H460 lung; > 100 µM and 66.9 µM and 43.6 µM in the test with NCI-H522 lung. In addition, the TGI is > 100 µM and 66.9 µM and 96.3 µM with SK-MEL-2 melanoma; over 100 µM with SK-OV-3 ovarian; over 100 µM in the test on CAKI-1 renal; over 100 µM in the test with SNB-19 CNS. Also, the GI50 in the test on A549 NSCLC is over 66.9 µM; in the test with KM12 colon, over 66.9 µM; in the test with NCI-H460 lung it was over 66.9 µM; in the test with NCI-H522 lung it was 17.8 µM; in the test with SK-OV-3 ovarian, over 66.9 µM; with CAKI-1 renal it was over 66.9 µM. In the test on SNB-19 CNS, the GI50 was over 66.9 µM.
As for `O=C(/C=C/c1ccccc1)NC1C=Nc2ccc(Cl)cc2NC1=O` (configuration not stated), the TGI was over 100 µM in the test on HOP-62 NSCLC; over 100 µM with A549 NSCLC; over 100 µM with TK-10 renal; 56.8 µM in the test on KM12 colon; 51 µM in the test on NCI-H460 lung; 34.6 µM with NCI-H522 lung. Besides, the TGI in the test on SK-MEL-2 melanoma, with SK-OV-3 ovarian, in the test on CAKI-1 renal and with SNB-19 CNS was over 100 µM throughout.
In the case of `O=C1C=C(Cl)C(=O)C(c2ccc(Cl)cc2)=C1`, the TGI was 44 µM in the test with HOP-62 NSCLC; over 100 µM in the test with A549 NSCLC; 35.9 µM with TK-10 renal; over 100 µM in the test on KM12 colon; over 100 µM in the test on NCI-H460 lung; 47.4 µM in the test with NCI-H522 lung. The TGI in the test with SK-MEL-2 melanoma is 44.3 µM; in the test on SK-OV-3 ovarian it was over 100 µM; with CAKI-1 renal, 35.1 µM; in the test on SNB-19 CNS, over 100 µM.
On to `O=C(Nc1ccccc1OC(F)(F)F)Nc1n[nH]c2ccccc12`, for which the GI50 was 19.6 µM in the test with HOP-62 NSCLC; 15.7 µM in the test with A549 NSCLC; 37.9 µM in the test on TK-10 renal; 23.4 µM in the test with KM12 colon; 15 µM in the test with NCI-H460 lung; 33.9 µM in the test on NCI-H522 lung. Further, the GI50 was 81.4 µM with SK-MEL-2 melanoma, over 100 µM in the test with SK-OV-3 ovarian, 31 µM in the test on CAKI-1 renal and 78.3 µM in the test with SNB-19 CNS. Further, the TGI in the test with HOP-62 NSCLC was 73.4 µM; in the test with A549 NSCLC, 60.1 µM; in the test on TK-10 renal, over 100 µM; in the test with KM12 colon, over 100 µM; in the test with NCI-H460 lung, over 100 µM; in the test with NCI-H522 lung, over 100 µM. The TGI with SK-MEL-2 melanoma, with SK-OV-3 ovarian, in the test with CAKI-1 renal and with SNB-19 CNS was over 100 µM throughout.
With `N#CC(c1ccc(Cl)cc1)c1cccc(C(C#N)c2ccc(Cl)cc2)n1` (configuration not stated), the TGI with HOP-62 NSCLC was over 100 µM; in the test with A549 NSCLC, over 100 µM; in the test on TK-10 renal, 69.9 µM; in the test on KM12 colon, over 100 µM; with NCI-H460 lung, over 100 µM; with NCI-H522 lung it was over 100 µM. Besides, the TGI was 83.2 µM with SK-MEL-2 melanoma, over 100 µM with SK-OV-3 ovarian, over 100 µM in the test with CAKI-1 renal and over 100 µM with SNB-19 CNS.
As to `O=C(/C=C/C12c3ccccc3C(c3ccccc31)C1C(=O)NC(=O)C12)c1ccncc1` (configuration not stated), the GI50 is 2.4 µM with HOP-62 NSCLC; 13.4 µM with A549 NSCLC; 2.61 µM in the test with TK-10 renal; 1.85 µM in the test on KM12 colon; 2.16 µM with NCI-H460 lung; 1.61 µM in the test on NCI-H522 lung. Also, the GI50 with SK-MEL-2 melanoma was 2.88 µM; in the test on SK-OV-3 ovarian, 13.2 µM; in the test on CAKI-1 renal it was 2.58 µM; in the test with SNB-19 CNS it was 2.33 µM. The TGI with HOP-62 NSCLC was found to be 6.73 µM; with A549 NSCLC, 27.2 µM; in the test on TK-10 renal it was 7.75 µM; in the test with KM12 colon it was 4.42 µM; in the test with NCI-H460 lung it was 4.76 µM; with NCI-H522 lung it was 3.74 µM. In addition, the TGI worked out at 7.72 µM in the test on SK-MEL-2 melanoma, 26.7 µM in the test with SK-OV-3 ovarian, 11.7 µM in the test with CAKI-1 renal and 7.46 µM in the test on SNB-19 CNS.
`O=C1C(=O)N(c2ccc(Cl)cc2Cl)C(=O)C(=O)C1c1nc2ccccc2s1`: the TGI was over 100 µM with HOP-62 NSCLC; over 100 µM with A549 NSCLC; over 100 µM in the test with TK-10 renal; over 100 µM with KM12 colon; over 100 µM in the test with NCI-H460 lung; over 57.2 µM in the test with NCI-H522 lung. Further, the TGI with SK-MEL-2 melanoma, in the test on SK-OV-3 ovarian, in the test on CAKI-1 renal and in the test on SNB-19 CNS was over 100 µM each time.
In the case of `O=CN/C=C/c1cc(O)ccc1O`, the TGI in the test with HOP-62 NSCLC was over 100 µM; with A549 NSCLC it was over 85.4 µM; in the test with TK-10 renal, 31.6 µM; in the test with KM12 colon, over 100 µM; in the test with NCI-H460 lung, over 100 µM; in the test with NCI-H522 lung, 11.2 µM. Moreover, the TGI in the test with SK-MEL-2 melanoma was over 71.9 µM; in the test with SK-OV-3 ovarian, over 90.5 µM; with CAKI-1 renal it was 25.8 µM; in the test with SNB-19 CNS, over 100 µM.
Take `COC(=O)[C@@H](NC(=O)CNC(=O)[C@H]1CCCN1C(=O)C(Cc1ccccc1)NC(=S)Nc1cc(C(F)(F)F)cc(C(F)(F)F)c1)C(C)C` (some centres not stated) (X6-[ξF][dP]GV-OMe): the GI50 with HOP-62 NSCLC was 1.92 µM; in the test on A549 NSCLC, 3.03 µM; with TK-10 renal, 4.45 µM; with KM12 colon it was 2.88 µM; in the test with NCI-H460 lung it was 3.39 µM; in the test with NCI-H522 lung it was 3.04 µM. The GI50 in the test with SK-MEL-2 melanoma was 2.86 µM; with SK-OV-3 ovarian it was 2.98 µM; in the test on CAKI-1 renal it was 2.71 µM; with SNB-19 CNS, 2.56 µM. The TGI in the test with HOP-62 NSCLC was 3.62 µM; with A549 NSCLC, 14.4 µM; in the test with TK-10 renal it was 18.8 µM; in the test on KM12 colon, 7.75 µM; in the test with NCI-H460 lung, 12 µM; in the test with NCI-H522 lung, 8.65 µM. The TGI was 6.86 µM in the test on SK-MEL-2 melanoma, 8.26 µM with SK-OV-3 ovarian, 10.5 µM in the test on CAKI-1 renal and 9.49 µM with SNB-19 CNS.
Take `Cn1cc(C2=C(c3cn(C)c4ncccc34)C(=O)NC2=O)c2ccccc21`: the GI50 with HOP-62 NSCLC was 10.9 µM; in the test on A549 NSCLC, 10.1 µM; in the test with TK-10 renal, 10.8 µM; in the test with KM12 colon it was 8.59 µM; in the test with NCI-H460 lung it was 9.96 µM; with NCI-H522 lung it was 10.2 µM. Besides, the GI50 in the test on SK-MEL-2 melanoma is 6.31 µM; with SK-OV-3 ovarian it was 6.97 µM; with CAKI-1 renal, 4.79 µM; in the test with SNB-19 CNS, 11.2 µM. Besides, the TGI in the test with HOP-62 NSCLC, in the test with A549 NSCLC, with TK-10 renal, with KM12 colon, in the test on NCI-H460 lung and with NCI-H522 lung was over 25 µM each time. For the same compound, the TGI is 12.8 µM in the test with SK-MEL-2 melanoma, 21.7 µM with SK-OV-3 ovarian, over 17.2 µM in the test on CAKI-1 renal and over 25 µM in the test with SNB-19 CNS.
